{"source": "patent US4560662A", "about": "“Streptomyces antibioticus ATCC 31771 and process for obtaining same” (priority 1981, dated 1985)", "key": {"[1]": {"test_system": "Proteus vulgaris ATCC 6380", "test": "Bacteriostatic power in solid medium (MIC), aerobic Gram negative", "assay_type": "cell-based", "conditions": "Proteus vulgaris, ATCC6380, read-out: minimum inhibiting concentration"}, "[2]": {"test_system": "Bacteroides fragilis ATCC 23745", "test": "Bacteriostatic power in solid medium (MIC), anaerobic", "assay_type": "cell-based", "conditions": "Bacteroides fragilis, ATCC23745; solid medium; LRP 205; anaerobic; read-out: minimum inhibiting concentration"}, "Salmonella typhi LRP 8": {"test_system": "Salmonella typhi LRP 8", "test": "Bacteriostatic power in solid medium (MIC), aerobic Gram negative", "assay_type": "cell-based", "conditions": "Salmonella enterica, TYPHI, read-out: minimum inhibiting concentration"}, "[3]": {"test_system": "Staphylococcus aureus LRP 14", "test": "Bacteriostatic power in solid medium (MIC), aerobic Gram positive", "assay_type": "cell-based", "conditions": "Staphylococcus aureus, LRP14; solid medium; LRP 14; Penycilline resistant; read-out: minimum inhibiting concentration"}, "Bacillus subtilis LRP 25": {"test_system": "Bacillus subtilis LRP 25", "test": "Bacteriostatic power in solid medium (MIC), aerobic Gram positive", "assay_type": "cell-based", "conditions": "Bacillus subtilis, LRP25; solid medium; LRP 25; read-out: minimum inhibiting concentration"}, "[4]": {"test_system": "Staphylococcus aureus ATCC 6538 P", "test": "Bacteriostatic power in solid medium (MIC), aerobic Gram positive", "assay_type": "cell-based", "conditions": "Staphylococcus aureus, ATCC6538; solid medium; LRP 39; read-out: minimum inhibiting concentration"}, "[5]": {"test_system": "Mycoplasma hominis I ATCC 14097", "test": "Bacteriostatic power in solid medium (MIC), aerobic Gram negative", "assay_type": "cell-based", "conditions": "Metamycoplasma hominis, ATCC14097, read-out: minimum inhibiting concentration"}, "[6]": {"test_system": "Streptococcus faecalis sub. zymogenes ATCC 12958", "test": "Bacteriostatic power in solid medium (MIC), aerobic Gram positive", "assay_type": "cell-based", "conditions": "Enterococcus faecalis, ATCC12958; solid medium; LRP 61; read-out: minimum inhibiting concentration"}, "[7]": {"test_system": "Micrococcus luteus ATCC 15957", "test": "Bacteriostatic power in solid medium (MIC), aerobic Gram positive", "assay_type": "cell-based", "conditions": "Micrococcus luteus, ATCC15957, LRP 193, Erythromicina resistant, read-out: minimum inhibiting concentration", "excerpt": "(§1) Turning now to an examination of the novel macrolide antibiotics produced according to the present invention, they are all characterized by a bacteriostatic spectrum like that of erythromycin and by the stability in acidic environment, whereby their direct administration by oral route is possible, without having recourse to esters and/or salts, showing the afore mentioned disadvantages and problems. The above is confirmed by the following Table 1, wherein the MIC values are reported, indicating the bacteriostatic power, and by the Table 2, giving the stability values in acidic environment. Without having to be construed in a limiting sense, it seems plausible that the greater stability of the macrolide. antibiotics of the present invention can be attributed to the presence in the molecule of the antibiotic of the neutral sugar oleandrose (J. Antib. (1976) XXIX (7), 728).\n(§2) Bacteriostatic power in solid medium of Erythromycin A, Erythromycin B,\n(§3) aerobic and anaerobic bacteria, Gram positive and Gram negative minimum\n(§4) inhibiting concentrations expressed in mcg/ml."}, "[8]": {"test_system": "Staphylococcus aureus ATCC 14154", "test": "Bacteriostatic power in solid medium (MIC), aerobic Gram positive", "assay_type": "cell-based", "conditions": "Staphylococcus aureus, ATCC14154, LRP 78, Erythromicina resistant, read-out: minimum inhibiting concentration", "excerpt": "as §1, §2, §3, §4"}, "[9]": {"test_system": "Clostridium perfrigens ATCC 3624", "test": "Bacteriostatic power in solid medium (MIC), anaerobic", "assay_type": "cell-based", "conditions": "Clostridium, ATCC3624, LRP 206, read-out: minimum inhibiting concentration"}, "[10]": {"conditions": "known; cited from earlier work"}, "[11]": {"test_system": "Streptococcus pneumonieae LRP 53", "test": "Bacteriostatic power in solid medium (MIC), aerobic Gram positive", "assay_type": "cell-based", "conditions": "Streptococcus, LRP53; solid medium; LRP 53; read-out: minimum inhibiting concentration"}, "[12]": {"test_system": "Streptococcus pyogenes LRP 197", "test": "Bacteriostatic power in solid medium (MIC), aerobic Gram positive", "assay_type": "cell-based", "conditions": "Streptococcus pyogenes, LRP197; solid medium; LRP 197; read-out: minimum inhibiting concentration"}, "[13]": {"test_system": "Fusobacterium necrophorum ATCC 27852", "test": "Bacteriostatic power in solid medium (MIC), anaerobic", "assay_type": "cell-based", "conditions": "Fusobacterium necrophorum, ATCC27852; solid medium; LRP 210; anaerobic; read-out: minimum inhibiting concentration"}, "[14]": {"test_system": "Klebsiella pneumoniae LRP 54", "test": "Bacteriostatic power in solid medium (MIC), aerobic Gram negative", "assay_type": "cell-based", "conditions": "Klebsiella pneumoniae, LRP54, read-out: minimum inhibiting concentration"}, "[15]": {"test_system": "Streptococcus pyogenes ATCC 8668", "test": "Bacteriostatic power in solid medium (MIC), aerobic Gram positive", "assay_type": "cell-based", "conditions": "Streptococcus pyogenes, ATCC8668; solid medium; LRP 34; read-out: minimum inhibiting concentration"}, "Escherichia coli LRP 50": {"test_system": "Escherichia coli LRP 50", "test": "Bacteriostatic power in solid medium (MIC), aerobic Gram negative", "assay_type": "cell-based", "conditions": "Escherichia coli, LRP50, read-out: minimum inhibiting concentration"}, "[16]": {"test_system": "Streptococcus faecalis LRP 7", "test": "Bacteriostatic power in solid medium (MIC), aerobic Gram positive", "assay_type": "cell-based", "conditions": "Enterococcus faecalis, LRP7; solid medium; LRP 7; read-out: minimum inhibiting concentration"}, "[17]": {"test_system": "Pseudomonas aeruginosa LRP 9", "test": "Bacteriostatic power in solid medium (MIC), aerobic Gram negative", "assay_type": "cell-based", "conditions": "Pseudomonas aeruginosa, LRP9, read-out: minimum inhibiting concentration", "excerpt": "as §1, §2, §3, §4"}, "[18]": {"test_system": "Haemophilus influenzae ATCC 19418", "test": "Bacteriostatic power in solid medium (MIC), aerobic Gram negative", "assay_type": "cell-based", "conditions": "Haemophilus influenzae, ATCC19418, LRP 213, read-out: minimum inhibiting concentration", "excerpt": "as §1, §2, §3, §4"}, "Shigella sonnei LRP 5": {"test_system": "Shigella sonnei LRP 5", "test": "Bacteriostatic power in solid medium (MIC), aerobic Gram negative", "assay_type": "cell-based", "conditions": "Shigella sonnei, LRP5, read-out: minimum inhibiting concentration", "excerpt": "as §1, §2, §3, §4"}, "[19]": {"test_system": "Streptococcus pneumonieae ATCC 6303", "test": "Bacteriostatic power in solid medium (MIC), aerobic Gram positive", "assay_type": "cell-based", "conditions": "Streptococcus, ATCC6303; solid medium; LRP 35; read-out: minimum inhibiting concentration"}, "[20]": {"test_system": "Acholeplasma laidlawii ATCC 23206", "test": "Bacteriostatic power in solid medium (MIC), aerobic Gram negative", "assay_type": "cell-based", "conditions": "Acholeplasma laidlawii, ATCC23206; solid medium; LRP 204; read-out: minimum inhibiting concentration"}, "[21]": {"test_system": "Micrococcus luteus ATCC 9341", "test": "Bacteriostatic power in solid medium (MIC), aerobic Gram positive", "assay_type": "cell-based", "conditions": "Micrococcus luteus, ATCC9341; solid medium; LRP 6; read-out: minimum inhibiting concentration"}, "[22]": {"test_system": "Neisseria Gonorrhoeae ATCC 19424", "test": "Bacteriostatic power in solid medium (MIC), aerobic Gram negative", "assay_type": "cell-based", "conditions": "Neisseria gonorrhoeae, ATCC19424; solid medium; LRP 214; read-out: minimum inhibiting concentration"}, "[23]": {"test_system": "Corynebacterium diphteriae LRP 24", "test": "Bacteriostatic power in solid medium (MIC), aerobic Gram positive", "assay_type": "cell-based", "conditions": "Corynebacterium, LRP24; solid medium; LRP 24; read-out: minimum inhibiting concentration"}, "[24]": {"test_system": "Streptococcus pneumonieae LRP 52", "test": "Bacteriostatic power in solid medium (MIC), aerobic Gram positive", "assay_type": "cell-based", "conditions": "Streptococcus, LRP52; solid medium; LRP 52; read-out: minimum inhibiting concentration"}}}
{"molecule": "CO[C@H]1C[C@H](O[C@H]2[C@H](C)[C@@H](O[C@@H]3O[C@H](C)C[C@H](N(C)C)[C@H]3O)[C@@H](C)C[C@@]3(CO3)C(=O)[C@H](C)[C@@H](O)[C@@H](C)[C@@H](C)OC(=O)[C@@H]2C)O[C@@H](C)[C@@H]1O", "note": "[oleandomycin, reference compound]", "values": [{"measurement": "MIC", "setting": "[1]", "value": "> 25", "unit": "µg/mL"}, {"measurement": "MIC", "setting": "[2]", "value": 0.39, "unit": "µg/mL"}, {"measurement": "MIC", "setting": "Salmonella typhi LRP 8", "value": "> 25", "unit": "µg/mL"}, {"measurement": "MIC", "setting": "[3]", "value": 0.39, "unit": "µg/mL"}, {"measurement": "MIC", "setting": "Bacillus subtilis LRP 25", "value": 0.39, "unit": "µg/mL"}, {"measurement": "MIC", "setting": "[4]", "value": 0.39, "unit": "µg/mL"}, {"measurement": "MIC", "setting": "[5]", "value": "> 25", "unit": "µg/mL"}, {"measurement": "MIC", "setting": "[6]", "value": 1.56, "unit": "µg/mL"}, {"measurement": "MIC", "setting": "[7]", "value": "> 25", "unit": "µg/mL"}, {"measurement": "MIC", "setting": "[8]", "value": "> 25", "unit": "µg/mL"}, {"measurement": "MIC", "setting": "[9]", "value": 3.12, "unit": "µg/mL"}, {"measurement": "toxicity", "setting": "[10]", "value": "high toxicity"}, {"measurement": "MIC", "setting": "[11]", "value": 0.195, "unit": "µg/mL"}, {"measurement": "MIC", "setting": "[12]", "value": 0.195, "unit": "µg/mL"}, {"measurement": "MIC", "setting": "[13]", "value": 6.25, "unit": "µg/mL"}, {"measurement": "MIC", "setting": "[14]", "value": "> 25", "unit": "µg/mL"}, {"measurement": "MIC", "setting": "[15]", "value": 0.195, "unit": "µg/mL"}, {"measurement": "MIC", "setting": "Escherichia coli LRP 50", "value": "> 25", "unit": "µg/mL"}, {"measurement": "MIC", "setting": "[16]", "value": 1.56, "unit": "µg/mL"}, {"measurement": "MIC", "setting": "[17]", "value": "> 25", "unit": "µg/mL"}, {"measurement": "MIC", "setting": "[18]", "value": "> 25", "unit": "µg/mL"}, {"measurement": "MIC", "setting": "Shigella sonnei LRP 5", "value": "> 25", "unit": "µg/mL"}, {"measurement": "MIC", "setting": "[19]", "value": 0.195, "unit": "µg/mL"}, {"measurement": "MIC", "setting": "[20]", "value": 6.25, "unit": "µg/mL"}, {"measurement": "MIC", "setting": "[21]", "value": 0.049, "unit": "µg/mL"}, {"measurement": "MIC", "setting": "[22]", "value": 0.195, "unit": "µg/mL"}, {"measurement": "MIC", "setting": "[23]", "value": 0.097, "unit": "µg/mL"}, {"measurement": "MIC", "setting": "[24]", "value": 0.195, "unit": "µg/mL"}]}
